# In patent US20090196871A1, “USE OF 4-PYRIDYLMETHYLPHTHALAZINES FOR CANCER TREATMENT” (priority 2001, published 2009):
# Legend:
# [1] = test system: advanced solid tumors; assay: Example 4: once-daily oral dosing, Phase I, DCE-MRI, plasma VEGF, toxicity
# [2] = clinical; settings: human, in vivo, po
# [3] = Example 3: pharmacokinetic study, twice-daily dosing
# Procedure: (§1) The patients are monitored by dynamic contrast enhanced magnetic resonance imaging (DCE-MRI) of tumors to provide a measure of the bi-dimensional transfer constant (Ki) prior to treatment, on day 2 and after every 28 day cycle. In addition, tumor volume is measured by magnetic resonance imaging every 28 days, and full pharmacokinetic profiles are obtained on days 1 and 28.
# [4] = test system: advanced solid tumors; assay: Example 3: twice-daily oral dosing, safety and DCE-MRI of tumors
# Procedure: as §1
# [5] = test system: metastatic colorectal cancer; assay: Example 1: combination with oxaplatin/folinic acid/5-fluorouracil chemotherapy in patients; type: in vivo, human
# Procedure: 15 Patients with histologically confirmed metastatic colorectal cancer seven of which had previously received adjuvant chemotherapy are treated with a combination of 1-(4-chloro-anilino)-4-(4-pyridylmethyl)phthalazine and a chemotherapy regimen. The chemotherapy regimen is 85 mg/m^2 of oxaplatin on day 1, 200 mg/m^2 of folinic acid given as a 2 hour infusion on days 1 and 2, and S-fluorouracil administered as a bolus at a dose of 400 mg/m^2 followed by 600 mg/m^2 over 22 hours on days 1 and 2. The chemotherapy regimen is given every 14 days. […] The treatment is well-tolerated. […] Stable diseases are observed in 2 patients, minor responses in 3 patients and partial responses in 8 patients.
# [6] = test system: metastatic renal cell carcinoma; assay: Example 2: once-daily oral monotherapy in patients; type: in vivo, human; settings: 300, 750 or 1000 mg/day once a day orally
# Procedure: Ten patients having metastatic renal cell carcinoma, six of which had previous biologic therapy, are treated with 300, 750 or 1000 mg/day of 1-(4-chloroanilino)-4-(4-pyridyl-methyl)phthalazine administered once a day orally. Seven of the ten patients maintain stable disease for a median of 3 months.
# [7] = clinical; settings: human, plasma, po
# [8] = test system: tumor vascular permeability; assay: Studies in humans (general statement); parameters: species or system human; settings: in vivo
# [9] = among patients on 300, 500 and 1000 mg daily doses, twice daily
# [10] = combination with chemotherapy, of 15 patients
smiles,measurement,setting,value
Clc1ccc(Nc2nnc(Cc3ccncc3)c3ccccc23)cc1,reduction in Ki (DCE-MRI) associated with non-progressive disease,[1]; colorectal cancer patients with liver metastasis,50-60%
same,rise in plasma VEGF levels,"[1]; responders at doses >1000 mg/day, within the first 28 days of treatment",up to 5 fold
same,dose-limiting toxicity,[1]; up to 2000 mg/day once daily,No dose-limiting toxicity
same,Tmax,[2],1 to 2.5 h
same,decrease of systemic exposure (AUC) at steady-state compared to day 1,[2],approximately 30%
same,dose up to which dose proportional increase in exposure is observed,[2],up to 1000 mg/day
same,half-life,[2],180 to 360 min
same,area under the curve (AUC),[3]; 300 mg total daily dose,82 ng·mL·h
same,area under the curve (AUC),[3]; 500 mg total daily dose,46 ng·mL·h
same,area under the curve (AUC),[3]; 1000 mg total daily dose,370 ng·mL·h
same,grade 1 lethargy,[4]; [9],one
same,grade 2 lightheadedness,[4]; [9],4 patients
same,transient grade 3 elevations of liver transaminases,[4]; [9],2 patients
same,biological effect indicated by the study data,[4]; twice daily oral,reducing tumor perfusion/vascular permeability and slowing tumor growth
same,tolerability / drug-related SAEs,"[4]; twice daily oral, total daily doses 300-2000 mg",well tolerated with no drug-related SAEs
same,minor responses observed,[5]; [10],3 patients
same,partial responses observed,[5]; [10],8 patients
same,stable diseases observed,[5]; [10],2 patients
same,tolerability of the treatment,"[5]; combined with oxaplatin, folinic acid, 5-fluorouracil every 14 days, 500, 1000 or 2000 mg/day single daily dose, 15 patients",well-tolerated
same,median duration of stable disease,[6],3 months
same,patients maintaining stable disease,[6]; of ten patients,Seven
same,AUC,[7],~114 µM·h
same,effect on tumor vascular permeability in humans,[8],reduce tumor vascular permeability
same,tolerability in humans,[8],well tolerated
